Measured values published in patent publication US20190083679A1, “Amorphous Inorganic Polyphosphate-Calcium-Phosphate And Carbonate Particles As Morphogenetically Active Coatings and Scaffolds” (NanotecMARIN GmbH, priority 2014, published 2019).

Experiments:
[1] = system: carbonic anhydrase IX (CA IX); assay: CA IX gene expression in SaOS-2 cells on discs (qRT-PCR); type: cell-based, human; conditions: normalized to GAPDH, 100 μM gallium nitrate
Experimental: As a marker for the functional activity of the SaOS-2 cells, growing onto titanium discs, the expression of the two genes encoding for the enzymes carbonic anhydrase IX (CA IX) and alkaline phosphatase (ALP) was determined by quantitative qRT-PCR.
(SEQ ID NO: 8). […] (SEQ ID NO. 10).

[2] = system: alkaline phosphatase (ALP); conditions: normalized to GAPDH, 100 μM gallium nitrate
Experimental: The expression values were normalized to the expression of GAPDH. […] The cultures were incubated at first in the absence of the MAC for 3 d; then they were transferred to medium, supplemented with the MAC, and the incubation was continue for additional 3 or 5 d, as outlined. Then the cells were harvested, RNA was extracted and subjected to qRT-PCR for determination of both CA IX and ALP transcripts; the expression of GAPDH served as reference. Data are expressed as mean values±SD for five independent experiments; each experiment was carried out in duplicate (* P<0.01). nd, not detectable.
In parallel, the expression of the gene for the enzyme ALP was determined, likewise by qRT-PCR.
Bone cell like SaOS-2 cells (human osteogenic sarcoma cells) are cultured in McCoy's medium (Biochrom-Seromed), supplemented with 2 mM L-glutamine, 10% or 15% heat-inactivated fetal calf serum (FCS), and 100 units/ml penicillin and 100 μg/ml streptomycin. The cells are incubated in 25-cm^2 flasks or in 6-well plates (surface area 9.46 cm^2; e.g. from Orange Scientifique) in a humidified incubator at 37° C. […]
The quantitative real-time RT [reverse transcription]-PCR (qRT-PCR) technique is applied to determine the effect of the discs on the expression levels of the following genes in SaOS-2 cells. […] After determinations of the Ct values the expression of the respective transcripts are calculated.

O=[N+]([O-])[O-].O=[N+]([O-])[O-].O=[N+]([O-])[O-].[Ga+3] [gallium nitrate]
CA IX expression, with Ga, −MAC 0 d [1]: 0.24±0.05 | CA IX expression, with Ga, +MAC 5 d ([1]; 3 d −MAC then 5 d +MAC): 0.89±0.11 | ALP expression, with Ga, −MAC 0 d [2]: 0.027 ± 0.004 | ALP expression, with Ga, +MAC 5 d ([2]; 3 d −MAC then 5 d +MAC): 0.111 ± 0.010
